Literature values as cited in US20050272717A1, “Treatment of aromatase inhibitor therapy-related osteoporosis” (priority 2004, published 2005).

Experiments:
bone = settings: preclinical studies

Compound: Cc1c(-c2ccc(O)cc2)n(Cc2ccc(OCCN3CCCCCC3)cc2)c2ccc(O)cc12 [bazedoxifene, 1-[4-(2-azepan-1-yl-ethoxy)-benzyl]-2-(4-hydroxy-phenyl)-3-methyl-1H-indol-5-ol]
- estradiol-stimulated proliferation of breast cancer cells (breast cancer cells): inhibits
- compressive bone strength (bone): improved
- histomorphometric profile (bone; compared with raloxifene): superior to that of raloxifene
